Laboratory results: ChEMBL document CHEMBL1139343, “Pharmacophore guided discovery of small-molecule human apurinic/apyrimidinic endonuclease 1 inhibitors” (J Med Chem, 2009)

Molecular target: DNA repair nuclease/redox regulator APEX1 (Homo sapiens, UniProt P27695)
Assay: Inhibition of purified human recombinant APE1 expressed in Escherichia coli M15 cells

Chain of DNA repair nuclease/redox regulator APEX1 (P27695 whole entry): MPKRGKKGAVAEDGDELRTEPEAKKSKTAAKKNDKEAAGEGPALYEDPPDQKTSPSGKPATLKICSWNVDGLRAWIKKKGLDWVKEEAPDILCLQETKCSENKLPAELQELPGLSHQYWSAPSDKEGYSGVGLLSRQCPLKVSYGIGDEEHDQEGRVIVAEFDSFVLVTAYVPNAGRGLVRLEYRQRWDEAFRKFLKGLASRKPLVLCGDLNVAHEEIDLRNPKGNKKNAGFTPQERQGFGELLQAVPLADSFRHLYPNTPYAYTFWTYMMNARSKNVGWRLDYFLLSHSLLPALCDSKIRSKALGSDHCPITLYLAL

SMILES	IC50 [µM]
Cc1ccc(-c2nnc3c4ccccc4c(C)nn23)cc1S(=O)(=O)N1CCOCC1	> 100
COc1ccc(N(CC(=O)NC2CCCC2)C(=O)C2CSC(=O)C2)cc1 (centres undefined)	> 100
COC(=O)CSc1nnc(-c2ccc(NS(C)(=O)=O)cc2)n1C	> 100
CS(=O)(=O)NCc1nnc(SCC(=O)N2CCCCCC2)n1-c1ccc(F)cc1	> 100
O=C(c1ccc2c(c1)C(=O)N(c1ccccc1C(=O)O)C2=O)c1ccc2c(c1)C(=O)N(c1ccccc1C(=O)O)C2=O	8
O=C(Nc1nnc(CCS(=O)(=O)c2ccc3ccccc3c2)s1)c1ccccc1	> 100
O=C(O)CN1C(=O)/C(=C2/C(=O)N(CC(=O)O)c3ccccc32)SC1=S	13
O=S(=O)(c1ccc(F)cc1)N1CCCC(c2nc(O)c3nnn(Cc4ccc(F)cc4)c3n2)C1 (centres undefined)	> 100
O=C(O)CCNc1ccc(Br)cc1C(=O)O	32
O=P(O)(O)c1ccccc1OCCOc1ccccc1P(=O)(O)O	> 100
O=C(O)CC1S/C(=N/N=C/c2ccco2)NC1=O (centres undefined)	> 100
COc1ccc(/C=C/C(=O)O)cc1S(=O)(=O)NC1CCS(=O)(=O)C1 (centres undefined)	> 100
Nc1ncnc2[nH]c(SCCC(=O)O)nc12	20
O=C(O)CCS(=O)(=O)c1cccc2c(S(=O)(=O)CCC(=O)O)cccc12	35
O=C(CN(Cc1cccs1)S(=O)(=O)c1ccc(S(=O)(=O)NC2CC2)cc1)Nc1ccccc1	> 100
Cc1cc(C(=O)O)c(CSCc2cc(C(=O)O)oc2C)o1	20
Cc1cc(S(=O)(=O)N2CCc3ccccc32)ccc1OCC(=O)NCc1ccccn1	> 100
CCS(=O)(=O)Nc1cc2c(C(C)=O)c(C)n(S(=O)(=O)CC)c2cc1C	> 100
O=C(CN1C(=O)c2ccccc2S1(=O)=O)Nc1ccc(Cl)c(C(=O)O)c1	> 100
O=C(Nc1ccccc1O)c1cc(S(=O)(=O)N2CCCCC2)ccc1Cl	> 100
O=C(O)c1ccccc1C(=O)NCc1ccc(CNC(=O)c2ccccc2C(=O)O)cc1	30
CCCNS(=O)(=O)c1ccc(OCC(=O)NCC2CCCO2)c(C)c1 (centres undefined)	> 100

SMILES	IC50 [µM]
Cc1ccccc1NC(=O)c1cccc(NC(=O)CCC(=O)O)c1	35
O=[N+]([O-])c1ccccc1-c1nnc(CSc2nnc(-c3ccccc3O)o2)o1	> 100
O=[N+]([O-])c1ccccc1-c1nnc(CSc2nc(-c3ccccc3O)n[nH]2)o1	> 100
COC(=O)C1C(=O)C2=C(CC1C)NC(C)=C(C(=O)OC1CCCC1)C2c1ccccc1C (centres undefined)	> 100
C=CCN1C(=S)S/C(=C/C=C2\Sc3ccccc3N2CCCS(=O)(=O)O)C1=S	> 100
Cc1ccc(S(=O)(=O)CCc2nnc(NC(=O)CC3CC4CCC3C4)s2)cc1 (centres undefined)	> 100
CCc1nnc(NS(=O)(=O)c2ccc(NC(=O)CCC(=O)O)cc2)s1	80
Cc1cc(C)nc(SCc2nnc(SCC(=O)N3CCCCC3)n2-c2ccccc2)n1	> 100
O=C(O)c1ccc(S(=O)(=O)c2ccc(Sc3ccc(C(=O)O)c(C(=O)O)c3)cc2)cc1	6
COc1ccc(NS(=O)(=O)c2ccc(NC(=O)c3ccccc3C(=O)O)cc2)nn1	> 100
NC(=O)CSc1nnc(-c2ccc(S(=O)(=O)N3CCCCC3)cc2)n1Cc1ccccc1	> 100
Cc1ccc(-c2ccc(CCC(=O)O)n2CC(=O)O)cc1	12
O=C(O)CCC(=O)NC(Cc1ccccc1)C(=O)O (centres undefined)	40
O=C(O)CCc1ccc(-c2cccs2)n1CC(=O)O	9
O=C(O)CNC(=O)c1cc(=O)[nH]c(=O)[nH]1	> 100
CCNC(=O)c1cc(S(=O)(=O)NCc2ccc(C(=O)O)cc2)c(C)s1	> 100
CN(NC(=O)COc1ccccc1)C1=NS(=O)(=O)c2ccccc21	> 100
O=C(O)CCn1c(=S)n(CCC(=O)O)c2ccccc21	15
CCOc1cc(S(=O)(=O)NCc2ccc3c(c2)OCO3)c(OCC)cc1-n1cnnn1	> 100
O=C(O)CCC1(CCC(=O)O)CCCCC1=O	> 100
O=C(O)CSc1ccc(C(=O)O)cc1[N+](=O)[O-]	100
CCN(CC)S(=O)(=O)c1cccc(C(=O)Nc2ccccc2C(=O)O)c1	100

SMILES	IC50 [µM]
Cn1c(CCNS(=O)(=O)c2ccccc2)nnc1SCc1cccnc1	> 100
CN(c1ccc(C(=O)O)cc1)S(=O)(=O)c1cccs1	> 100
O=C(O)CN1C(=O)/C(=C2\SC(=S)N(c3ccc(Br)cc3)C2=O)c2ccccc21	6
O=C(O)CCC1(CCC(=O)O)c2ccccc2-c2ccccc21	50
O=C(O)CSc1cc(-c2ccccc2)nc(SCC(=O)O)n1	19
O=C(O)c1ccc(Oc2ccc(S(=O)(=O)c3ccc(C(=O)O)c(C(=O)O)c3)cc2)cc1	10
COc1cc(C=C2C(=O)OC3(CCCC3)OC2=O)cc(I)c1OCc1ccccc1C#N	> 100
O=C(Nc1nnc(CCS(=O)(=O)c2ccc3ccccc3c2)s1)c1ccccc1Cl	> 100
O=C(O)CSc1nnc(-c2ccc(S(=O)(=O)N3CCOCC3)cc2)n1Cc1ccco1	> 100
Cc1nc(NC(=O)c2ccco2)sc1C(=O)O	> 100
COc1cc(S(=O)(=O)NC2CCCCC2C)ccc1-n1cnnn1 (centres undefined)	> 100
Cc1nc(N(CCC(=O)O)CCC(=O)O)sc1C(C)(C)C	60
COc1ccc(S(=O)(=O)N2CCC(C(=O)O)CC2)cc1C(=O)O	30
Cc1ccc2c(c1)c1nnc(SCc3ccc(CC(=O)O)cc3)nc1n2C(=O)O	15
O=S(=O)(c1ccccc1)N1CCCC(c2nc(-c3ccc(F)cc3)no2)C1 (centres undefined)	> 100
Cc1ccc(S(=O)(=O)Nc2ccc(NC(=O)CN3CCCCC3)c(Cl)c2)cc1	> 100
O=C(O)CC(CC(=O)Nc1nnn[nH]1)c1ccccc1 (centres undefined)	30
COC(=O)COc1ccc(S(=O)(=O)N2CCCCC2)cc1C	> 100
O=C(O)CN1C(=O)/C(=C2\SC(=S)N(NC(=O)c3ccccc3O)C2=O)c2ccccc21	11
CCOc1cc(-n2cnnn2)c(OCC)cc1NC(=O)c1cc2cccc(OC)c2oc1=O	> 100
N#C/C(=C\c1ccc(-c2ccccc2[N+](=O)[O-])o1)S(=O)(=O)c1ccccc1	> 100
NC(=O)CSc1nc2ccc(NC(=O)c3ccccc3C(=O)O)cc2s1	27

SMILES	IC50 [µM]
O=C(Nc1ccccc1O)c1cccc(S(=O)(=O)N2CCCC2)c1	> 100
CCC(=O)N(Cc1ccc(S(N)(=O)=O)cc1)C1CC(=O)N(c2ccccc2)C1=O (centres undefined)	> 100
CC1([N+](=O)[O-])CN(CCC(=O)O)CN(CCC(=O)O)C1	50
COc1ccccc1C(=O)NCC(C)(C)CNC1=NS(=O)(=O)c2ccccc21	> 100
O=S(=O)(O)CCSc1nnc(SCCS(=O)(=O)O)s1	> 100
CCn1c(SCCN2CCCC2)nnc1C1CCCN(S(C)(=O)=O)C1 (centres undefined)	> 100
O=C(O)CCCN1C(=O)/C(=C2/C(=O)N(CC(=O)O)c3ccccc32)SC1=S	12
O=S(=O)(Nc1ccc(NS(=O)(=O)c2cccs2)cc1)c1cccs1	> 100
CCOC(=O)C(CCc1nn[nH]n1)(CCc1nn[nH]n1)C(=O)OCC	> 100
O=C(Nc1cc(S(=O)(=O)O)cc2cc(S(=O)(=O)O)cc(O)c12)c1ccccc1	27
O=S(=O)(O)CC(O)CSc1nc2ccccc2s1 (centres undefined)	100
CCS(=O)(=O)N1CCN(S(=O)(=O)c2ccc(C(=O)O)cc2)CC1	> 100
CCc1nnc(NC(=O)c2cc(S(=O)(=O)N(CC)CC)ccc2Cl)s1	> 100
Cc1cc(S(=O)(=O)N2CCOCC2)ccc1OCC(=O)N1CCCC1	> 100
O=C(O)CCc1nc2cc(C(=O)O)ccc2[nH]1	80
Cc1oc(CSCC2CCCO2)cc1C(=O)O (centres undefined)	16
O=C(O)CN1C(=O)/C(=C2\SC(=S)N(C(Cc3ccccc3)C(=O)O)C2=O)c2ccccc21 (centres undefined)	3
COC(=O)C1C(=O)c2c([nH]c(C(=O)OCC3CCCO3)c2C)CC1C (centres undefined)	> 100
CCN(c1ccc(C(O)(C(=O)OC)C(F)(F)F)cc1)S(=O)(=O)c1ccc(C)cc1 (centres undefined)	> 100
CCc1cc2c(=O)c(-c3nc4ccccc4s3)c(C)oc2cc1OS(C)(=O)=O	> 100
O=C(O)c1cccc(NS(=O)(=O)c2cccc3nsnc23)c1	> 100
O=C(O)c1cccc(Nc2nc3ccccc3nc2NS(=O)(=O)c2cccc([N+](=O)[O-])c2)c1	> 100

SMILES	IC50 [µM]
Nc1ccc(-c2ccc(N)c(S(=O)(=O)O)c2)cc1S(=O)(=O)O	> 100
Cc1cc(C(=O)O)c(CSCc2cc(C(=O)O)c(C)o2)o1	> 100
O=C(O)c1cccc(S(=O)(=O)N2CCCC(c3nc(O)c4nnn(Cc5ccccc5Cl)c4n3)C2)c1 (centres undefined)	87
C=CCSc1nnc(-c2ccc(NS(C)(=O)=O)cc2)n1C	> 100
COC(=O)C1C(=O)c2c([nH]c(C(=O)OC3CCCCC3)c2C)CC1C (centres undefined)	> 100
O=S(=O)(O)c1cc(O)c2c(S(=O)(=O)O)cc(S(=O)(=O)O)cc2c1	> 100
O=C(CCc1nc(-c2ccc(Cl)cc2)no1)Nc1nnn[nH]1	> 100
O=C(O)CN1C(=O)/C(=C2\SC(=S)NC2=O)c2ccccc21	9
O=C(Nc1ccccc1O)c1cc(S(=O)(=O)N2CCCCCC2)ccc1Cl	> 100
O=S(=O)(O)c1ccccc1Nc1ccnc(Nc2ccccc2S(=O)(=O)O)n1	> 100
CC(C)(C)NS(=O)(=O)c1ccc2oc3ccc(S(=O)(=O)NC(C)(C)C)cc3c2c1	> 100
CCCCOC(=O)c1ccc(NC(=O)CSc2nnnn2CC)cc1	> 100
O=C(O)c1cccc(S(=O)(=O)N2CCCC(c3nc(O)c4nnn(Cc5ccc(F)cc5)c4n3)C2)c1 (centres undefined)	33
O=C(O)CNS(=O)(=O)c1ccc2c(c1)C(=O)c1cc(S(=O)(=O)NCC(=O)O)ccc1-2	50
O=C(O)CC1OC(=O)c2cc3c(cc21)C(=O)OC3CC(=O)O (centres undefined)	11
CN(c1ccc(C(=O)Nc2ccc(F)cc2)cc1)S(=O)(=O)c1ccccc1	> 100
O=C(O)CSc1cccc(C(=O)O)c1	33
Cc1ccc(Cn2nnc3c(O)nc(C4CCCN(S(=O)(=O)c5ccccc5)C4)nc32)cc1 (centres undefined)	> 100
C/C(CCc1ccc2c(c1)OCO2)=N\N=C1/NC(=O)CC(C(=O)O)S1 (centres undefined)	50
COc1cc(S(=O)(=O)N(Cc2cccnc2)Cc2ccccc2Cl)ccc1-n1cnnn1	> 100
COc1ccc(/C=C/C(=O)O)cc1S(=O)(=O)NCc1cccnc1	> 100
